Data taken from patent publication US20010053797A1 (priority 1998, published 2001).
“Also recorded” adds a separate entry of the source.

Experiments:
[1] = system: murine cortical cell cultures (neurons), NMDA receptor; test: NMDA neurotoxicity in murine cortical cell cultures, medium LDH; type: cell-based, Swiss Webster mice; settings: compound added with low micromolar NMDA, 20-25 h
Method: Cultures were incubated in 5% CO2 at 37° C.
Experiments were conducted at 13-15 days in vitro.

[2] = system: cortical neurons and glia; test: Chemical hypoxia (azide) and glucose deprivation in cortical cell cultures, medium LDH; type: cell-based, Swiss Webster mice; settings: 3 mM azide 30 min with compound; LDH 21-25 h later
Method: Primary cultures containing both cortical neurons and glia were prepared from gravid Swiss Webster mice as previously described. (Regan , R. F. and Choi, D. W., The effect of NMDA, AMPA/kainate, and calcium channel antagonists on traumatic cortical neuronal injury in culture, Brain Res, 633: 236-242, 1994). Plating medium consisted of Eagle's minimal essential medium (MEM), 5% equine serum, 5% fetal bovine serum, 2 mM glutamine, and 23 mM glucose. Cultures were incubated in 5% CO2 at 37° C. Two-thirds of the culture medium was exchanged twice weekly with MEM containing 10% equine serum, 2 mM glutamine, and 23 mM glucose. Glial cell division was inhibited at 4-7 days in vitro with 10^−5 M cytosine arabinoside.
Chemical hypoxia was induced with 3 mM azide, which unlike cyanide is not volatile and has little effect on copper-zinc and manganese superoxide dismutases at low millimolar concentrations. (Misra, H. P. and Fridovich, I., Inhibition of superoxide dismutases by azide, Arch Biochem Biophys 189: 317-322, 1978). Experiments were conducted at 13-16 days in vitro in a glucose-free buffer containing 116 mM NaCl, 5.4 mM KCl, 1.8 mM CaCl2, 1 mM NaH2PO4, 26.2 mM NaHCO3, 0.8 mM MgSO4, and amino acids (MEM amino acids, Sigma Chemical Co., St. Louis, Mo., U.S.A.). After incubation for 30-90 min at 37° C. in 5% CO2, cultures were washed into MEM containing 10 mM glucose and were returned to the incubator.
Cell death was estimated 21-25 h after azide exposure by inspection under phase-contrast microscopy, and was quantified by assaying lactate dehydrogenase (LDH) activity in the medium, as previously described. (Regan, R. F. and Panter, S. S., Traumatic neuronal injury in cortical cell culture is attenuated by 21-aminosteroids, Brain Res, 682: 144-150, 1995). Medium LDH in this culture system is an accurate marker of neuronal death that correlates well with cell counts. (Koh, J. Y. and Choi, D. W., Vulnerability of cultured cortical neurons to damage by excitotoxins: Differential susceptibility of neurons containing NADPH-diaphorase, J Neurosci 8: 2153-2163, 1988). […] (Koh, J. Y. and Choi, D. W., 1988). The LDH activity in the medium of sister cultures exposed to sham wash alone was subtracted from all values to obtain the LDH signal associated specifically with neurotoxin exposure.
Data were analyzed by one-way analysis of variance. Differences between groups and a single mean were assessed with the Dunnett multiple comparisons test; when groups were compared to more than one mean, the Tukey-Kramer post hoc test was used.

[3] = system: cortical neurons and glia; settings: 10-100 μM, 30 min in MEM without azide

SMILES: OCCS [mercaptoethanol]
- effect on NMDA neurotoxicity (neuronal death, medium LDH) [1]: markedly enhanced
- effect on NMDA neurotoxicity (neuronal death, medium LDH) ([1]; listed as Mercaptoethanol): increased NMDA neurotoxicity to a degree comparable to that of glutathione
- effect on azide neurotoxicity in glucose-free buffer (neuronal death) [2]: potentiate; also recorded: concentration-toxicity profile that was similar to GSH
- toxicity of compound alone [3]: nontoxic
